# Test results reported in patent publication US7335770B2, “Triazine compounds and their analogs, compositions, and methods” (Reddy U5 Therapeutics, Inc., priority 2004, dated 2008).
# Test system: smooth muscle cells (SMC)
# Experiment: anti-proliferation assay (perlecan)
# Format: cell-based
# Details: anti-proliferation assay (perlecan), class of IC50; read-out: Activity (note 1)
# Protocol: The activity scale used in Table 3 as follows (numbers are inclusive): “+++” represents IC50 of less than about 3 μM; “++” represents IC50 of between about 3 and about 7 μM; and “+” represents IC50 of greater than about 7 μM. In addition, compounds, to include compositions thereof, encompassed within the scope of structures Ia-XXIVa, respectively, or listed in Tables 1A and 1E may be likewise employed in this embodiment and/or aspect of the present invention. Further, any hydrogen atoms that are required for any atom to attain its usual valence in a structure presented in Table 3, whether a carbon atom or a heteroatom, should be inferred if it is not specifically indicated.
# In addition to the above compounds, the following compounds and compositions comprising these compounds are active in an anti-proliferation assay (Perlecan). These compounds and compositions comprising these compounds are, among other things, generally useful for treating cardiovascular disorders associated with proliferative activity. Specifically, these compounds include N^2-cycloheptyl-N^4-(3-fluoro-4-methoxyphenyl)-N^6-methyl-N^6-(1-methyl-piperidin-4-yl)-1,3,5-triazine-2,4,6-triamine, and N^2-cycloheptyl-N^4-methyl-N^4-(1-methyl-piperidin-4-yl)-N^6-naphthalen-2-yl-1,3,5-triazine-2,4,6-triamine.
# Methods for identifying the activity and screening for one or more of these compounds or molecules that induce synthesis of proteoglycans such as HSPG (heparan sulfate proteoglycan) are taught in U.S. patent application Ser. No. 10/091,357, which is incorporated herein in its entirety. Assays of effects of compounds in vivo are also taught in the incorporated references and are known to those skilled in the art. In general, methods comprise the addition of such compounds to assays and measurement of HSPG synthesis including, but not limited to, the production of syndecans, glypicans and perlecans, for example, syndecans 1, 2 and 4; and glypican-1. Other assays that can be used to determine the activity of the compounds of the present invention include other methods for measuring the induction of perlecan synthesis. For example, in one assay, perlecan is induced in cells by certain inducers, and the response is measured. Compounds of the present invention are then added to a replicate assay and the effect on perlecan induction is determined. Using such methods, compounds are determined that can either inhibit perlecan, elevate induction of perlecan, or that have no effect at all. Those compounds that are effective as therapeutic agents can then be used in animals, humans or patients with cellular proliferation disease aspects, such as vascular-associated diseases or SMC proliferation pathologies.
# Another assay for determining compounds having SMC effects comprises adding a composition suspected of affecting SMC proliferation to smooth muscle cells in growth medium or serum-free medium. The change in cell proliferation can be measured by methods known to those skilled in the art, such as incorporation of labeled nucleotides into dividing cells' DNA, and compared to the proliferation of cells which are not treated with the compound. Other measurements include directly determining levels of HSPG synthesis by measuring the amount or change in amount of HSPG such as with ELISA for HSPGs, and compared to the amount of HSPG synthesis in untreated cells. Other indirect or direct measurement are contemplated by the present invention and are known to those skilled in the art. For example, such methods include, but are not limited to, measurement of RNA levels, RT-PCR, Northern blotting, Western blotting promoter-based assays to identify compounds that affect one or more proteoglycans and assays for proteoglycan biological activity shown by recombinant proteins, partially purified proteins, or lysates from cells expressing proteoglycans in the presence or absence of compounds of interest.
row,Compound,IC50 [µM]
1,"CCN1CCCC1CNc1nc(Cl)nc(Nc2ccc(OC)c(F)c2)n1 (stereo not drawn) [6-Chloro-N-(1-ethyl-pyrrolidin-2-yl-methyl)-N′-(3-fluoro-4-meth-oxy-phenyl)-[1,3,5]triazine-2,4-di-amine]",3 to 7
2,"Clc1nc(Cl)nc(NC2CCCCCC2)n1 [Cycloheptyl-(4,6-dichloro-[1,3,5]tri-azin-2-yl)-amine]",3 to 7

# Same assay, conditions: anti-proliferation assay (perlecan); some cells print no unit; read-out: Avg IC-50
row,Compound,IC50 [µM]
1,"CCN1CCCC1CNc1nc(Cl)nc(Nc2ccc(OC)c(F)c2)n1 (stereo not drawn) [6-Chloro-N-(1-ethyl-pyrrolidin-2-yl-methyl)-N′-(3-fluoro-4-meth-oxy-phenyl)-[1,3,5]triazine-2,4-di-amine]",6.5
2,"Clc1nc(Cl)nc(NC2CCCCCC2)n1 [Cycloheptyl-(4,6-dichloro-[1,3,5]tri-azin-2-yl)-amine]",3.75

# Same assay, conditions: using the same activity scale used in Table 3
row,Compound,"activity in anti-proliferation assay (Perlecan), in words"
1,CCN1CCCC1CNc1nc(Nc2ccc(OC)c(F)c2)nc(N2CCN(CC(=O)N3CCCC3)CC2)n1.Cl.Cl (stereo not drawn),high activity
2,COc1ccc(Nc2nc(NCCNC(=O)CCCCC3SCC4NC(=O)NC43)nc(NC3CCCCCC3)n2)cc1Cl (stereo not drawn),high activity
3,"COc1ccc(Nc2nc(NC3CCCCCC3)nc(-c3c(O)ccc4ccccc34)n2)cc1Cl [1-[4-(3-Chloro-4-methoxy-phenylamino)-6-cycloheptylamino-[1,3,5]triazin-2-yl]-naphthalen-2-ol]",high activity
4,"COc1ccc(Nc2nc(NC3CCCCCC3)nc(Oc3ccc(C(C)=O)cc3Cl)n2)cc1Cl [1-{3-Chloro-4-[4-(3-chloro-4-methoxy-phenylamino)-6-cycloheptylamino-[1,3,5]triazin-2-yloxy]-phenyl}-ethanone]",high activity
5,"COc1ccc(Nc2nc(NC3CCCCCC3)nc(OC3CCCN(C(C)=O)C3)n2)cc1Cl (stereo not drawn) [1-{3-[4-(3-Chloro-4-methoxy-phenylamino)-6-cycloheptylamino-[1,3,5]triazin-2-yloxy]-piperidin-1-yl}-ethanone]",high activity
6,"COc1ccc(Nc2nc(NC3CCCCCC3)nc(Oc3ccc(C(C)=O)cc3)n2)cc1Cl [1-{4-[4-(3-Chloro-4-methoxy-phenylamino)-6-cycloheptylamino-[1,3,5]triazin-2-yloxy]-phenyl}-ethanone]",high activity
7,"CCN1CCCC1CNc1nc(Nc2ccc(OC)c(F)c2)nc(N2CCN(CC(=O)N3CCCC3)CC2)n1 (stereo not drawn) [2-{4-[4-[(1-Ethyl-pyrrolidin-2-ylmethyl)-amino]-6-(3-fluoro-4-methoxy-phenylamino)-[1,3,5]triazin-2-yl]-piperazin-1-yl}-1-pyrrolidin-1-yl-ethanone]",high activity
8,"CCc1occc(=O)c1Oc1nc(Nc2ccc(OC)c(Cl)c2)nc(NC2CCCCCC2)n1 [3-[4-(3-Chloro-4-methoxy-phenylamino)-6-cycloheptylamino-[1,3,5]triazin-2-yloxy]-2-ethyl-pyran-4-one]",high activity
9,"CCOC(=O)/C=C/c1ccc(Oc2nc(Nc3ccc(OC)c(Cl)c3)nc(NC3CCCCCC3)n2)cc1 [3-{4-[4-(3-Chloro-4-methoxy-phenylamino)-6-cycloheptylamino-[1,3,5]triazin-2-yloxy]-phenyl}-acrylic acid ethyl ester]",high activity
10,"COc1ccc(Nc2nc(NC3CCCCCC3)nc(NC3CCN(C(=O)CCCCC4SCC5NC(=O)NC54)CC3)n2)cc1Cl (stereo not drawn) [4-(5-{4-[4-(3-Chloro-4-methoxy-phenylamino)-6-cycloheptylamino-[1,3,5]triazin-2-ylamino]-piperidin-1-yl}-5-oxo-pentyl)-tetrahydro-thieno[3,4-d]imidazol-2-one]",high activity
11,"COc1ccc(Nc2nc(NC3CCCCCC3)nc(-c3ccc(O)cc3O)n2)cc1Cl [4-[4-(3-Chloro-4-methoxy-phenylamino)-6-cycloheptylamino-[1,3,5]triazin-2-yl]-benzene-1,3-diol]",high activity
12,"COc1ccc(Nc2nc(NC3CCCCCC3)nc(Oc3ccc(/C=N\O)cc3)n2)cc1Cl [4-[4-(3-Chloro-4-methoxy-phenylamino)-6-cycloheptylamino-[1,3,5]triazin-2-yloxy]-benzaldehyde oxime]",high activity
13,"COc1ccc(Nc2nc(NC3CCCCCC3)nc(Oc3ccc(C=O)cc3)n2)cc1Cl [4-[4-(3-Chloro-4-methoxy-phenylamino)-6-cycloheptylamino-[1,3,5]triazin-2-yloxy]-benzaldehyde]",high activity
14,"COc1ccc(Nc2nc(NC3CCCCCC3)nc(Oc3ccccc3C#CC(C)(C)O)n2)cc1Cl [4-{2-[4-(3-Chloro-4-methoxy-phenylamino)-6-cycloheptylamino-[1,3,5]triazin-2-yloxy]-phenyl}-2-methyl-but-3-yn-2-ol]",high activity
15,"CCN1CCCC1CNc1nc(NC2CCCCCC2)nc(NC2CCC(O)CC2)n1 (stereo not drawn) [4-{4-Cycloheptylamino-6-[(1-ethyl-pyrrolidin-2-ylmethyl)-amino]-[1,3,5]triazin-2-ylamino}-cyclohexanol]",high activity
16,"COc1ccc(Nc2nc(NC3CCCCCC3)nc(Oc3ccc(C#CC(C)(C)O)cc3)n2)cc1Cl [4-{4-[4-(3-Chloro-4-methoxy-phenylamino)-6-cycloheptylamino-[1,3,5]triazin-2-yloxy]-phenyl}-2-methyl-but-3-yn-2-ol]",high activity
17,"COc1ccc(Nc2nc(NC(C)C)nc(Oc3ccc(C#CC(C)(C)O)cc3)n2)cc1Cl [4-{4-[4-(3-Chloro-4-methoxy-phenylamino)-6-isopropylamino-[1,3,5]triazin-2-yloxy]-phenyl}-2-methyl-but-3-yn-2-ol]",high activity
18,"COc1ccc(Nc2nc(NNC(=O)CCCCC3SCC4NC(=O)NC43)nc(NC3CCCCCC3)n2)cc1Cl (stereo not drawn) [5-(2-Oxo-hexahydro-thieno[3,4-d]imidazol-4-yl)-pentanoic acid N′-[4-(3-chloro-4-methoxy-phenylamino)-6-cycloheptylamino-[1,3,5]triazin-2-yl]-hydrazide]",high activity
19,"COc1ccc(Nc2nc(NCCCCCNC(=O)CCCCC3SCC4NC(=O)NC43)nc(NC3CCCCCC3)n2)cc1Cl (stereo not drawn) [5-(2-Oxo-hexahydro-thieno[3,4-d]imidazol-4-yl)-pentanoic acid {5-[4-(3-chloro-4-methoxy-phenylamino)-6-cycloheptylamino-[1,3,5]triazin-2-ylamino]-pentyl}-amide]",high activity
20,"COc1ccc(Nc2nc(NC3CCCCCC3)nc(Sc3ccccc3C(C)(C)C)n2)cc1Cl [6-(2-tert-Butyl-phenylsulfanyl)-N-(3-chloro-4-methoxy-phenyl)-N′-cycloheptyl-[1,3,5]triazine-2,4-diamine]",high activity
21,"COc1ccc(Nc2nc(NCCN)nc(NC3CCCCCC3)n2)cc1Cl [N-(2-Amino-ethyl)-N′-(3-chloro-4-methoxy-phenyl)-N″-cycloheptyl-[1,3,5]triazine-2,4,6-triamine]",high activity
22,"CCN1CCCC(Oc2nc(Nc3ccc(OC)c(Cl)c3)nc(NC3CCCCCC3)n2)C1 (stereo not drawn) [N-(3-Chloro-4-methoxy-phenyl)-N′-cycloheptyl-6-(1-ethyl-piperidin-3-yloxy)-[1,3,5]triazine-2,4-diamine]",high activity
23,"COc1ccc(Nc2nc(NC3CCCCCC3)nc(OC3CCN(C)CC3)n2)cc1Cl [N-(3-Chloro-4-methoxy-phenyl)-N′-cycloheptyl-6-(1-methyl-piperidin-4-yloxy)-[1,3,5]triazine-2,4-diamine]",high activity
